Measured values from patent US20110301142A1, “ANTAGONISTS OF LYSOPHOSPHATIDIC ACID RECEPTORS” (priority 2008, published 2011).

Columns and labels:
Female C57BL/6 mice [1] = assay: Mouse carbon tetrachloride (CCl4)-induced liver fibrosis model; type: in vivo; details: for collagen deposition in the liver as compared to the untreated group: CCl4-induced liver fibrosis
Description: Female C57BL/6 mice (Harlan, 20-25 g) housed 4/cage are given free access to food and water and allowed to acclimate for at least 7 days prior to test initiation. After the habituation phase, mice receive CCl4 (0.5-1.0 ml/kg body weight) diluted in corn oil vehicle (100 μL volume) via i.p. injection twice a week for 4-6 weeks. (Higazi, A. A. et al., Clin Exp Immunol. 2008 April; 152(1):163-73. Epub 2008 Feb. 14.). Control mice receive an equivalent volume of corn oil vehicle only. Test compound or vehicle is delivered po, ip or sc daily. At the end of the study (4-6 weeks after first i.p. injection of CCl4), mice are sacrificed using inhaled isoflurane and blood is drawn via cardiac puncture for subsequent analysis of ALT/AST levels. The liver is harvested, and one half of the liver is frozen at −80° C. and the other half is fixed in 10% neutral buffered formalin for histological assessment of liver fibrosis using light microscopy (10× magnification). Liver tissue homogenates are analyzed for collagen levels using Sircol (Biocolor Ltd, UK). Fixed Liver tissue is stained using hematoxylin and eosin (H&E) and trichrome and liver fibrosis is determined by quantitative, computer-assisted densitometry of collagen in liver tissue sections using light microscopy. Plasma and liver tissue lysates are also analyzed for concentrations of inflammatory, pro-fibrotic and tissue injury biomarkers including transforming growth factor β1, hyaluronic acid, tissue inhibitor of metalloproteinase-1, matrix matelloproteinase-7, connective tissue growth factor and lactate dehydrogenase activity, using commercially available ELISA. The resulting data are plotted using Graphpad prism and statistical differences between groups determined.

human LPA3 = molecular target: T1, human LPA3 (Homo sapiens, UniProt Q9UBY5); assay: LPA3 calcium flux assay; type: cell-based; details: Human LPA3 expressing CHO cells, stimulated with 10 nM LPA; read-out: HLPA3 Ca Flux IC50
T1 construct: The full-length cDNA fragment for human LPA3 was obtained by PCR from the vector; expressed in transfected cells; cDNA from the Missouri S&T cDNA Resource Center
T1 sequence (Q9UBY5 1-353): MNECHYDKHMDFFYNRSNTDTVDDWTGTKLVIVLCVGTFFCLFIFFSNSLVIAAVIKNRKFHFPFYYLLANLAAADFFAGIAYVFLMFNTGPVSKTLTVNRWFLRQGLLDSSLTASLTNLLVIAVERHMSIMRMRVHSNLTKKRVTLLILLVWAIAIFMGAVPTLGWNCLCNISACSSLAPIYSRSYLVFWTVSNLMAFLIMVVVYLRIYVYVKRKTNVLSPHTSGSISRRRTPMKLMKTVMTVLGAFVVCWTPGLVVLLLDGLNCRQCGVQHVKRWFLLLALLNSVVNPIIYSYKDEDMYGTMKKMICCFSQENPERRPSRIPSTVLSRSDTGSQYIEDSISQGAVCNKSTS
How it was run: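 Stably transfected CHO cells, serum-starved overnight, loaded with Calcium 4 dye 1 h at 37 °C in HBSS/20 mM Hepes with 0.3% fatty-acid-free HSA. Compounds preincubated 30 min at room temperature, then cells stimulated with 10 nM LPA; intracellular Ca2+ read by fluorescence; IC50 from titration curves.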

Female C57BL/6 mice [2] = assay: Mouse unilateral ureteral obstruction kidney fibrosis model; type: in vivo
Description: Female C57BL/6 mice (Harlan, 20-25 g) housed 4/cage will be given free access to food and water and allowed to acclimate for at least 7 days prior to test initiation. After the habituation phase, mice undergo unilateral ureteral obstruction (UUO) surgery or sham to left kidney. Briefly, a longitudinal, upper left incision is performed to expose the left kidney. The renal artery is located and 6/0 silk thread is passed between the artery and the ureter. The thread is looped around the ureter and knotted 3 times insuring full ligation of ureter. The kidney is returned to abdomen, the abdominal muscle is sutured and the skin is stapled closed. Mice are returned to their cages and monitored daily for the duration of the experiment. Test compound or vehicle is delivered po, ip or sc daily. The route and frequency of dosing is based on previously determined pharmacokinetic properties. All animals are sacrificed using inhaled isoflurane 4, 8 or 14 days after UUO surgery. […] Kidney tissue homogenates are analyzed for collagen levels using Sircol (Biocolor Ltd, UK). Fixed kidney tissue is also stained using hematoxylin and eosin (H&E) and trichrome and kidney fibrosis is determined by quantitative, computer-assisted densitometry of collagen in […] tissue sections using light microscopy. […] The resulting data are plotted using Graphpad prism and statistical differences between groups determined.

IC50 (human LPA3)	Structure (SMILES)	effect on collagen deposition compared to pirfenidone (Female C57BL/6 mice [1]; 30 mg/kg, po, qd)	collagen deposition in the liver as compared to the untreated group (Female C57BL/6 mice [1])	reduction of kidney fibrosis as compared to the untreated group (Female C57BL/6 mice [2])
1 to 50 µM	Cc1noc(-c2ccc(-c3ccc(CC(=O)O)cc3)cc2)c1NC(=O)O[C@H](C)c1ccccc1Cl [Compound 1-88, (4′-{4-[(R)-1-(2-Chloro-phenyl)-ethoxycarbonylamino]-3-methyl-isoxazol-5-yl}-biphenyl-4-yl)-acetic acid]	same effect on collagen deposition as pirfenidone	significantly reduced	at least 20%
1 to 50 µM	Cc1noc(-c2ccc(-c3ccc(CC(=O)O)cc3)cc2)c1NC(=O)O[C@H](C)c1ccccc1 [Compound 1-115]	–	significantly reduced	55%
